Reference: ChEMBL document CHEMBL4834403, “Design and Synthesis of Novel Epigenetic Inhibitors Targeting Histone Deacetylases, DNA Methyltransferase 1, and Lysine Methyltransferase G9a with In Vivo Efficacy in Multiple Myeloma” (J Med Chem, 2021)

Target: T1, Histone-lysine N-methyltransferase EHMT2 (Mus musculus, UniProt Q9Z148)
T1 sequence (Q9Z148 whole entry): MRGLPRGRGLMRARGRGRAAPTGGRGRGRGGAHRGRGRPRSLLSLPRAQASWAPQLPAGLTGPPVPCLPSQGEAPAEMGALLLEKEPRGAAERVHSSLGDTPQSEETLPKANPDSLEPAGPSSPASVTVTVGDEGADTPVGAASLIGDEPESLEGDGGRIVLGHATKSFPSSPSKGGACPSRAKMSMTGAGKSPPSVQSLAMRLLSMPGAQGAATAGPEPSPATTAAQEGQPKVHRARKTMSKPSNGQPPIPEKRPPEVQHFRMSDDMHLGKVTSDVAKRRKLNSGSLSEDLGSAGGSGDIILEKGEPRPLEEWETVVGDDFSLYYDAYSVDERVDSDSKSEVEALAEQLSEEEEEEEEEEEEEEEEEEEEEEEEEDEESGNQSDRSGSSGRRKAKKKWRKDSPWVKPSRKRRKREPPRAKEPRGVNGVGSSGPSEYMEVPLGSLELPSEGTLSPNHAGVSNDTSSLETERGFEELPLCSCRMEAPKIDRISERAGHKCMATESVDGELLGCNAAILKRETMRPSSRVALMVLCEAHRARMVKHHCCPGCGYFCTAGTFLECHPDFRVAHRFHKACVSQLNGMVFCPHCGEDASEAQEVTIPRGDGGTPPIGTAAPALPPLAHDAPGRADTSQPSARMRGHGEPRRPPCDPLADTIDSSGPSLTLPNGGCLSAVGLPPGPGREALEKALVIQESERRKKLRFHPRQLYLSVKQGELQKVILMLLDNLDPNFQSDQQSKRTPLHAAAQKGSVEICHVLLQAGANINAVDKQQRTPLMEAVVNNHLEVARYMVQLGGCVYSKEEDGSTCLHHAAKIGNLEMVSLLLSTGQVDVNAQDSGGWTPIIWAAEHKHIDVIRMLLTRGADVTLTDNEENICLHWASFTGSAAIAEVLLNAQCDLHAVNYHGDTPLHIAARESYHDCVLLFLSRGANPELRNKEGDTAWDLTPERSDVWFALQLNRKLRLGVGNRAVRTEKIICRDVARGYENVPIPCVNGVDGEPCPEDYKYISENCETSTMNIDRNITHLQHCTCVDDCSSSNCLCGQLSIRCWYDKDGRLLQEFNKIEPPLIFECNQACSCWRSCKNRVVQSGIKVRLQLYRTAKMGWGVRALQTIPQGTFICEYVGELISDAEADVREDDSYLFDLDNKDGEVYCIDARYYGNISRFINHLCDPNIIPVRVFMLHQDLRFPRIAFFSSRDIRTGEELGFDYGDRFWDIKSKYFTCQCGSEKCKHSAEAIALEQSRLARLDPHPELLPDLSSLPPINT
Assay: Inhibition of mouse thymus 6His-sumo-tagged G9a (969 to 1263 residues) expressed in Escherichia coli BL21 (DE3) using histone H3 as substrate incubated for 30 mins by MALDI-TOF-MS analysis

IC50: 7.14 µM
Structure (SMILES): COc1ccc2c(NC3CCN(Cc4ccccc4)CC3)nc(NCCNC(=O)CCCCCC(=O)NO)nc2c1
